In general, logP refers to a log measure of how a compound divides between an organic and an aqueous phase. A high value points to a more lipophilic compound.

Structures are written as SMILES.

The source of these data is the OPERA property sets (Mansouri et al. 2018).

Turning to `Cc1ccc(N)c(N)c1`, the lipophilicity (logP) was found to be 0.66. `COc1ccc(N)c(C)c1` showed a logP of 1.23.

`Nc1ccc2c3c(cccc13)-c1ccccc1-2`: the log partition coefficient (logP) is 4.2. Turning to `Nc1cc2ccccc2c2ccccc12`, the log partition coefficient (logP) was 3.56. The result for `O=C1Nc2ccc([N+](=O)[O-])cc2C1=O` reads 0.47; that for `Cc1ccc2cccc([N+](=O)[O-])c2n1`, 1.99; that for `Nc1ccc(Cl)cc1[N+](=O)[O-]`, 2.72. The compound `Nc1ccc2c(c1)Cc1ccccc1-2` gave a logP of 3.14. As for `O=[N+]([O-])c1ccc2c3c(cccc13)CC2`, the log partition coefficient (logP) is 3.85. Under `Nc1ccccc1-c1ccccc1N` stands 1.34; under `Nc1cccc(C(F)(F)F)c1`, 2.29; under `Nc1cccc2cc3ccccc3cc12`, 3.69.

For `Nc1cc(Cl)ccc1O`, the logP turned out to be 1.81. Consider `O=[N+]([O-])c1ccc2ccccc2c1`, for which the log partition coefficient (logP) stood at 3.24. The result for `Cc1ccc(C)c(N)c1` reads 1.83; that for `Nc1ccc2ccc3cccc4ccc1c2c34`, 4.31; that for `O=[N+]([O-])c1cccc2cccc([N+](=O)[O-])c12`, 2.52.

Compound `O=[N+]([O-])c1cccc2c([N+](=O)[O-])cccc12` returned a log partition coefficient (logP) of 2.58. This logP and that of the compound before are within 0.2 log units of each other.

For `Nc1ccc(Oc2ccccc2)cc1`, the logP worked out at 2.96. The result for `Cc1ccc(O)c(N)c1` reads 1.16; that for `O=[N+]([O-])c1cc([N+](=O)[O-])c2ccccc2c1`, 2.83.

Consider `COc1cc(-c2ccc(N)c(OC)c2)ccc1N`, for which the lipophilicity (logP) worked out at 1.81. Under `Nc1cccc2c1Cc1ccccc1-2` stands 3.18; under `Cc1ccc(N)cc1N`, 0.14.
